Data: PMC12703428, “Development of Granzyme A Turn‐ON Fluorescent Activity‐Based Probes” (Chembiochem, 2025)
Square brackets hold non-standard residues; d marks the D form. Ends that are not written are not given here. Oic = O=C(O)[C@@H]1C[C@@H]2CCCC[C@@H]2N1; Tic = O=C(O)[C@@H]1Cc2ccccc2CN1

Assays:
Assay type in all cases: biochemical
[1] = target: T1, GzmK (Homo sapiens, UniProt P49863); experiment: Cross-reactivity labeling, GzmK; settings: GzmK 100 nM, probe 10-100 nM, 2 h, 37 °C, in-gel fluorescence
T1 sequence (P49863 27-264): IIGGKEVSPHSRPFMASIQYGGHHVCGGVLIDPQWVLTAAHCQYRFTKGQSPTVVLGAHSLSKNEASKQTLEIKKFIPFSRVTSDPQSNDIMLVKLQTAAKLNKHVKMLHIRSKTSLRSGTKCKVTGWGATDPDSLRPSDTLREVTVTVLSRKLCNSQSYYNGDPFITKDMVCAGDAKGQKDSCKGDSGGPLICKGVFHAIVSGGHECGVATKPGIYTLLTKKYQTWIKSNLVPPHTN
Method: (§1) Protease (100 nM) HNE PR3 GzmK GzmA
(§2) Protease (100 nM) GzmA GzmK
(§3) Supplementary Figure 2. Cross-reactivity of probes. (A) Labeling of GzmA, GzmK, PR3, and HNE
(§4) (100 nM, 2 h, 37 °C) by 100 nM of 5 and 6. (B) Labeling of GzmA and GzmK (100 nM, 2 h, 37 °C) by
(§5) 100 nM of 3 – 6. (C) Concentration-dependent labeling of GzmA and GzmK (100 nM, 2 h, 37 °C) by 5 and
(§6) 6. Protein samples were analyzed by SDS-PAGE and in-gel fluorescence scanning for Cy5 signal.
(§7) Protein loading was confirmed by SYPRO Ruby staining. […]

[2] = tested on: lysates of MDA‐MB‐231, HEK293T, Jurkat, and HeLa cells; experiment: Labeling in lysates of GzmA nonexpressing cells; settings: HeLa lysates 1 mg/mL, 1 h, 37 °C
Method: Figure 4 Characterization of qABPs in native proteomes. A) Labeling of GzmA by 5 and 6 in lysates of various cell lines (1 h, 37 °C). B) Stability of 5 and 6 in buffer and cell media (11 h, 37 °C). The hydrolysis of probes was measured by monitoring the production of Cy5 fluorescence signal over time. […] C) Labeling of GzmA by probes 3 –6 in NK‐92 cells (2 h, 37 °C). D) Flow cytometry analysis of protein labeling in NK‐92 cells by 3 –5. […] E) Flow cytometry analysis of concentration‐dependent GzmA labeling in NK‐92 cells and S/N of 5 (5 μM, 2 h, 37 °C). […]
Briefly, hGzmA (50 nM) was incubated with either inhibitor 1 or 2 (200 nM), and GzmA fluorogenic substrate […] (100 µM) in 50 mM Tris, 150 mM NaCl, 0.01% Triton X-100 (pH 8) for 15 hr at 37 °C. Recorded fluorescence at Ex/Em: 380/460 nm for residual GzmA […]
Cat. No. CRL-2570) and 4T1 (ATCC Cat. No. CRL-2539) cells were cultured in RPMI supplemented with 10% fetal bovine serum (FBS), 1% penicillin/streptomycin (PS), and 2 mM L-glutamine, while HEK293T and MDA-MB-231 cells (ATCC Cat. No. HTB-26) were cultured in DMEM supplemented likewise as described above. […] The supernatant was collected, and protein concentration was measured using a Pierce BCA protein assay. […]
C. In-gel fluorescence imaging […]

[3] = target: T2, proteinase 3 (PR3) (Homo sapiens, UniProt P24158); experiment: Cross-reactivity labeling, proteinase 3; settings: protease 100 nM, probe 100 nM, 2 h, 37 °C, in-gel fluorescence
T2 sequence (P24158 28-256): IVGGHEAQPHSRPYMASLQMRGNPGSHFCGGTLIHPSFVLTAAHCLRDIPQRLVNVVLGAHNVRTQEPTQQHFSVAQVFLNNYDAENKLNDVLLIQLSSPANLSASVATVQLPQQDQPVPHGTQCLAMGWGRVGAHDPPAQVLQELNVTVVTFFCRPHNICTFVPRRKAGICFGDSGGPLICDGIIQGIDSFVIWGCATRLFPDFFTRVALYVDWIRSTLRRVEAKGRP
Method: as §1, §2, §3, §4, §5, §6, §7

Row | Substance | Labeling of GzmK (cross-reactivity) [1] | Cross-reactivity in lysates of GzmA nonexpressing cells [2] | Labeling of PR3 (cross-reactivity) [3]
1 | IGNR [compound 5] | labeling was significantly weaker than for GzmA and required considerably higher probe concentrations | no detectable cross‐reactivity | Neither probe 5 nor 6 showed detectable labeling
2 | [Tic]G[Oic]R [compound 6] | labeling was significantly weaker than for GzmA and required considerably higher probe concentrations | no detectable cross‐reactivity | Neither probe 5 nor 6 showed detectable labeling
